Literature values, collected in PMC8538004, “Identification of a Novel Neuropeptide S Receptor Antagonist Scaffold Based on the SHA-68 Core” (Pharmaceuticals, 2021).

Assays:
NPSR = test system: NPSR; parameters: method as in PMID 24964000, PMID 20615693, PMID 18337476, PMID 24171469, PMID 20510609; conditions: Figure 1, known NPSR antagonists; cited from earlier work
[1] = test system: NPS-stimulated locomotor activity; parameters: method as in PMID 18337476, PMID 20172007; conditions: dosed at 50 mg/kg, 0.1 nmol of NPS; cited from earlier work

O=C(NCc1ccc(F)cc1)N1CCN2C(=O)OC(c3ccccc3)(c3ccccc3)C2C1 (centres unmarked) [SHA-68, 3-Oxo-1,1-diphenyl-tetrahydro-oxazolo[3,4-a]pyrazine-7-carboxylic Acid 4-Fluoro-benzylamide]
Ke (NPSR): 14 nM | Block of NPS-stimulated locomotor activity [1]: significantly block
